In ChEMBL document CHEMBL1201862, “PubChem BioAssay data set” (2004):
Active and inactive are the calls of the source.

Experiments:
[1] = HepG2 cell cytotoxicity, dose response, cytotoxicity control, plate reader, cherry-pick, antagonist series (AID 743416); format: functional, cell-based
[2] = molecular target: T1, Acyl-homoserine lactone acylase PvdQ (Pseudomonas aeruginosa (strain LESB58), UniProt Q9I194); assay: P. aeruginosa PvdQ acylase inhibitors, dose response, biochemical, fluorescence, plate reader and imaging, cherry-picks (AID 493231)
T1 sequence (Q9I194 whole entry): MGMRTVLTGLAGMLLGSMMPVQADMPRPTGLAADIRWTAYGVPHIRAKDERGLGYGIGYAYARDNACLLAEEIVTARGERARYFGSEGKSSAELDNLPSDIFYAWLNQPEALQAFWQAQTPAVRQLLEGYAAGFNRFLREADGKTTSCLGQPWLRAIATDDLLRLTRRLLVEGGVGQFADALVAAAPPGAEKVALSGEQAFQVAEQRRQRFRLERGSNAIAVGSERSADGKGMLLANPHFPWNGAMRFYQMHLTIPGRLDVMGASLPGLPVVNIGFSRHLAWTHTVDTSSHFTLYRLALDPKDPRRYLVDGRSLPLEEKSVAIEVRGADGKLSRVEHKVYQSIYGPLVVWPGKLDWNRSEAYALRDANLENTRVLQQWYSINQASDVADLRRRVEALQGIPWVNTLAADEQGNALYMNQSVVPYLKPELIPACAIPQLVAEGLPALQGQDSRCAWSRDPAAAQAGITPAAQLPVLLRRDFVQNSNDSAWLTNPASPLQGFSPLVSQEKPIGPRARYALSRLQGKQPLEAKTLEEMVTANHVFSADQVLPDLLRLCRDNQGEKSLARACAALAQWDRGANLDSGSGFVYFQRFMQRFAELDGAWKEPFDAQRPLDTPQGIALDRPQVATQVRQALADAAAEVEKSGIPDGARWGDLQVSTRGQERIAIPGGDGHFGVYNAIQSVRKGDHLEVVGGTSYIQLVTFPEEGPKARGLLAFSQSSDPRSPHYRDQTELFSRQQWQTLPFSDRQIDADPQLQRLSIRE

[3] = A549 cell cytotoxicity, dose response, cytotoxicity control, plate reader, cherry-pick, antagonist series (AID 743412); format: functional, cell-based
[4] = LGR2 antagonists, dose response, cell-based, HEK293, CRE-luciferase reporter, cherry pick, set 2 (AID 743343); format: functional;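 further: transfected cells were stimulated with diluted bursicon conditioned medium after compound addition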
[5] = MC4R antagonists, dose response, counter-screen for LGR2 antagonist project, cell-based, plate reader, cherry pick (AID 743444); format: functional;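 further: transfected HEK 293 cells stimulated with alpha-MSH peptide; potency of inhibitors of the alpha-MSH evoked signal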
[6] = HEK293 cell cytotoxicity, dose response, cytotoxicity control, plate reader, cherry-picked samples (AID 743446); format: functional, cell-based
[7] = molecular target: Beta-galactosidase (Escherichia coli, UniProt Q8VNN2); assay: PubChem AID 485352; format: functional
Beta-galactosidase, sequence (Q8VNN2 whole entry): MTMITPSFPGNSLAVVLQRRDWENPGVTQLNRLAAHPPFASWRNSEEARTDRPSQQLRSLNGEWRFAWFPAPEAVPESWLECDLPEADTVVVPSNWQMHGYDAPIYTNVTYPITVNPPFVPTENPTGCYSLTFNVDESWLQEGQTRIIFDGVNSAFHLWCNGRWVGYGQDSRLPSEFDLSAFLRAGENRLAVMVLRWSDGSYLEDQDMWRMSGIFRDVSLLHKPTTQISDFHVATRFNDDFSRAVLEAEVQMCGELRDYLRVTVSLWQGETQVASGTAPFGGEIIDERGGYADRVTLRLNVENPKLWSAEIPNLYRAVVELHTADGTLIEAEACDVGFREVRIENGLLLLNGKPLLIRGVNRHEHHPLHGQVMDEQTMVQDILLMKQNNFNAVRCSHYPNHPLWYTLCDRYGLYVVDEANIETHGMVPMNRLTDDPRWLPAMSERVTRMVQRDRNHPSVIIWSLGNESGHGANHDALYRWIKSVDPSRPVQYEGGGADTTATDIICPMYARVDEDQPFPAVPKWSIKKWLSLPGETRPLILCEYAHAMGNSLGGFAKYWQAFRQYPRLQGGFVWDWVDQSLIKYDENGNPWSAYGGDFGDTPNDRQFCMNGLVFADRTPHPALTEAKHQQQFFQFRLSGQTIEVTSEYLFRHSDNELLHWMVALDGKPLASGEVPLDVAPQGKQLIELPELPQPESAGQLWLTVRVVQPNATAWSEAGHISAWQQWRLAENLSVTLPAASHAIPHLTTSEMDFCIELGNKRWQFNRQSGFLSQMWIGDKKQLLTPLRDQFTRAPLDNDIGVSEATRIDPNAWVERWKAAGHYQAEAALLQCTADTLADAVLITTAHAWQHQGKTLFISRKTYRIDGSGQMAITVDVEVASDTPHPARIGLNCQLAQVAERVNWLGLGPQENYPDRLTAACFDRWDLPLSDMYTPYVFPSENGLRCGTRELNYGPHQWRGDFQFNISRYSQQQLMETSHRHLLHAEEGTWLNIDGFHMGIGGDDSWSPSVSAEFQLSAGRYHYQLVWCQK

[8] = molecular target: T2, Type-1 angiotensin II receptor (Homo sapiens, UniProt P30556); assay: AT1 receptor antagonists, dose response, selectivity assay for APJ receptor antagonist project, cell-based, uHTS hits (AID 463214); format: functional;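 further: antagonist potency against angiotensin II stimulated AT1 response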
T2 sequence (P30556 whole entry): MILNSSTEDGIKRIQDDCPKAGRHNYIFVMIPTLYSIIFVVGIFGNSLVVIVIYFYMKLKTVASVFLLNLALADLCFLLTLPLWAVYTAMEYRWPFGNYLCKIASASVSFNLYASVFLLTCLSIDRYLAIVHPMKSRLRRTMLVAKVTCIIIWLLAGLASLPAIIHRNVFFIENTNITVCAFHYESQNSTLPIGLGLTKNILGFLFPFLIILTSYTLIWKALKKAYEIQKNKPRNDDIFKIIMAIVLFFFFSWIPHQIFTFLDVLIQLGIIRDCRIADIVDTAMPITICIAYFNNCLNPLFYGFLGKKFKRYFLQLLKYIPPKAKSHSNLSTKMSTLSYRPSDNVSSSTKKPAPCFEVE

[9] = test system: HeLa; assay: HeLa cell cytotoxicity, dose response, cytotoxicity control, ATP luminescence, cherry-pick samples (AID 687004); format: functional, cell-based
[10] = molecular target: Albumin (Bos taurus, UniProt P02769); assay: Counterscreen for inhibitors of T-cell receptor (TCR)-CD3 interaction: Fluorescence-based biochemical high throughput dose response assay to identify inhibitors of T-cell receptor (TCR)-CD3 interaction using a TAMRA-labeled BSA probe.; format: functional
Albumin, sequence (P02769 whole entry): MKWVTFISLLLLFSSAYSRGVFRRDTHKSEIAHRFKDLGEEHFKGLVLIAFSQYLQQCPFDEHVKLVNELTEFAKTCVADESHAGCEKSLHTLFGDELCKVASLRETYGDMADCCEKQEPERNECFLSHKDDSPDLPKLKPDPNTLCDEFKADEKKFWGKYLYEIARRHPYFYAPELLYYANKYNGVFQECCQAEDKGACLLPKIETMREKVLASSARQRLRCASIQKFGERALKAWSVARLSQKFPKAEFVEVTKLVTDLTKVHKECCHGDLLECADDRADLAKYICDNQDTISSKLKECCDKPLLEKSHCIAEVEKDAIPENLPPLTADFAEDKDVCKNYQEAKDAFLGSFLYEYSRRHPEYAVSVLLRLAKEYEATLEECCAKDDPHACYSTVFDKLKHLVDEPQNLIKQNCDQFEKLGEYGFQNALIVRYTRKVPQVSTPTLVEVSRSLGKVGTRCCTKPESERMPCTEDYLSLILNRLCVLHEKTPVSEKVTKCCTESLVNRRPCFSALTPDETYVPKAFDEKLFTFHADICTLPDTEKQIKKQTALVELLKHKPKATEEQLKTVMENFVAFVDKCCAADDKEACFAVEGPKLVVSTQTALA

[11] = inhibitors of Vif binding to APOBEC3G peptide, primary screen, biochemical, TR-FRET, GST-Vif 1-94, biotin-A3G peptide, dose response retest (AID 1117319); format: functional;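 further: TR-FRET signal of purified GST-Vif binding a biotinylated A3G peptide; inhibitors lower the FRET signal by blocking Vif and A3G binding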
[12] = molecular target: T3, RNA-binding protein pos-1 (Caenorhabditis elegans, UniProt G5EF15); assay: inhibitors of POS-1/mex-3 RNA binding, dose response, biochemical, fluorescence polarization (AID 1964);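 further: purified POS-1 fused to maltose binding protein made in E. coli; potency of compounds blocking POS-1 binding to fluorescent RNA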
T3 sequence (G5EF15 whole entry): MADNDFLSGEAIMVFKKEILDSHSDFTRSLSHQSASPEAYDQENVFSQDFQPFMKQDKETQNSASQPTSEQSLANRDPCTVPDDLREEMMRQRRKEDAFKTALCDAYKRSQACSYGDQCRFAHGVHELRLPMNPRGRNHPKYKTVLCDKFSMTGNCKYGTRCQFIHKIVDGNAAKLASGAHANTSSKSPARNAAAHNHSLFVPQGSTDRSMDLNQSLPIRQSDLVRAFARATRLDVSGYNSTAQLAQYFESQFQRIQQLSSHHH

[13] = molecular target: T4, Zinc finger protein mex-5 (Caenorhabditis elegans, UniProt Q9XUB2); assay: MEX-5/TCR-2 RNA interaction inhibitors, dose response, biochemical, C. elegans, fluorescence polarization (AID 1960)
T4 sequence (Q9XUB2 whole entry): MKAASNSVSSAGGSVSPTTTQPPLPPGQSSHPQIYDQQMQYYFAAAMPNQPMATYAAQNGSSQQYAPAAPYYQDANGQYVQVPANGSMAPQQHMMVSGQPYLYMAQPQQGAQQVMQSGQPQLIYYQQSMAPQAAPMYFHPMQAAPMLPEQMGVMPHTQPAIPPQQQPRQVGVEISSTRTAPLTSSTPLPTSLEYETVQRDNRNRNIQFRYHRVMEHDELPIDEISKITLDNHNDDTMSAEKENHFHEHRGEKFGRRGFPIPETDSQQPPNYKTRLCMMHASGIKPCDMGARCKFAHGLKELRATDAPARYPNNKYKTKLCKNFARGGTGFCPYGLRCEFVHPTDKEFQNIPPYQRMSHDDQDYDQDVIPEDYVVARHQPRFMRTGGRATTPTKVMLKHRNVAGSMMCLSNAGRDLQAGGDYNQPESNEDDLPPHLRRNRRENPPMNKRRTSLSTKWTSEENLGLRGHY

[14] = molecular target: Tyrosyl-DNA phosphodiesterase 2 (Homo sapiens, UniProt O95551); assay: human TDP2 enzyme inhibitors, dose response, biochemical, epi absorbance, IC50 (AID 743297)
Tyrosyl-DNA phosphodiesterase 2, sequence (O95551 whole entry): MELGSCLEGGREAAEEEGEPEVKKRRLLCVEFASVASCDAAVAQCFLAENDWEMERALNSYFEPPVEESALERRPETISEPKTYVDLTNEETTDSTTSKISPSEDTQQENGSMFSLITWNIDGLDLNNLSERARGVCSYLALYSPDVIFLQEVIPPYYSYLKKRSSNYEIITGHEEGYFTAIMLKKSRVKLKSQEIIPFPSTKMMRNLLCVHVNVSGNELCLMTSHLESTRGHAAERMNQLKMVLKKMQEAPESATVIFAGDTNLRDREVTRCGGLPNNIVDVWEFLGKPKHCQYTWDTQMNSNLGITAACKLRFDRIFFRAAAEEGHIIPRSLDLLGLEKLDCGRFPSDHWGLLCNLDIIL

[15] = Glucagon-like peptide 1 release potency, NCI-H716 cell line, dose-response, half-maximal inhibitory concentration (AID 1117344); format: functional, cell-based
[16] = test system: INS1; assay: beta cell apoptosis inhibitors, cytokine rescue, dose response, luminescence, retest (AID 449756); format: functional, cell-based; conditions: Rattus norvegicus;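 further: cell death triggered by IL-1 beta plus TNF-alpha plus IFN-gamma mixture; protective hits raise ATP signal compared with cytokine alone wells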
[17] = half-maximal inhibitory concentration for glucagon-like peptide-1 release, STC-1 cell line, dose-response (AID 1117345); format: functional, cell-based
[18] = Shn3 3'UTR reporter inhibitors, dose response, cell-based, Clone20 osteoblasts, firefly luciferase, cherry-picked (AID 624132); format: functional;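 further: firefly luciferase luminescence from reporter carrying the Shn3 3'UTR in osteoblasts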
[19] = microbe, parasite or virus in culture; format: functional; conditions: Mycobacterium tuberculosis
[20] = molecular target: T5, Ubiquitin-conjugating enzyme E2 N (Homo sapiens, UniProt P61088); format: functional;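 further: Dose-response confirmation in a TR-FRET assay detecting UBC13-driven polyubiquitin chain formation, inhibition measured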
T5 sequence (P61088 whole entry): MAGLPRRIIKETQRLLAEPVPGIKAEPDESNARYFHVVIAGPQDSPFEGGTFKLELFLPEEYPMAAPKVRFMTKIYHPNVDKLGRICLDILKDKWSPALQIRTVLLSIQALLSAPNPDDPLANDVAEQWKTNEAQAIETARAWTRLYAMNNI

[21] = Luminescence Cell-Based Dose Retest to Confirm Inhibitors of Cancer Stem Cells. [Related pubchem assays (depositor defined):AID2717, AID2721]; format: functional; conditions: Homo sapiens
[22] = control 3'UTR Renilla luciferase suppression, dose response, counter-screen for Shn3 inhibitor project, cell-based, Clone20-Shn3RL, cherry-picked (AID 624133); format: functional

In the case of `COc1ccc(-c2nc3ccccc3s2)cc1`, the AC50 [1] is reported as > 52 µM (inactive), the AC50 [2] is reported as > 100 µM (inactive) and the AC50 [3] is reported as 42.9 µM (active). For the same compound, the AC50 [4] was 2.17 µM (active), the AC50 [5] was 2.75 µM (active) and the AC50 [6] was > 52 µM (inactive).

For `COc1ccc(C(=O)NC(=S)Nc2cccc(Cl)c2N2CCOCC2)cc1[N+](=O)[O-]`, the EC50 [7] was > 40 µM (inactive), the IC50 [8] was > 40 µM (not active) and the AC50 [9] was 28.8 µM (active). For the same compound, the AC50 ([9]; Homo sapiens) was > 52 µM (inactive).

For `O=C(Cc1ccccc1)N/N=C/c1cc(Br)cc(Br)c1O`, the IC50 [10] was > 94.1 µM (inactive).

With `Cn1nnc(NC(=O)c2cccc(F)c2)n1` the IC50 [11] was > 100 µM (active).

For `CN(C)c1cccc2c1c(NS(=O)(=O)c1cn(C)cn1)nn2C`, the EC50 [12] was 89.8 µM (active), the EC50 [13] was 32.5 µM (active) and the IC50 [14] was 106 µM (inactive).

With `Cc1cc(NC2=CC(=O)C(=O)c3ccccc32)no1` the IC50 [14] was 3.52 µM (active).

With `Cc1ccc(C(=O)NC2CCCCCCC2)c(Cl)c1` the AC50 [1] was 25.6 µM (active), the AC50 [3] was 25.8 µM (active) and the AC50 [4] was 8.04 µM (active). The AC50 [5] was 5.7 µM (active).

With `CCCCCCCCNC(C)C(O)c1ccc(SC(C)C)cc1` (stereo not drawn) [SULOCTIDIL] the IC50 [15] was 13 µM (inactive), the AC50 [16] was 8.21 µM (active) and the IC50 [17] was > 40 µM (inactive). For the same compound, the AC50 [18] was 3.94 µM (active), the CC50 [19] was 17.3 µM (active) and the IC50 [20] was > 20 µM (inactive). The AC50 [21] was 2.11 µM (active) and the AC50 [22] was 8.28 µM (active).
